Target: T1, β-secretase (BACE) (Homo sapiens, UniProt P56817)
T1 construct: purchased Panvera
Experiment: BACE FS1 % Inhibition Assay
Type: biochemical
In short: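 Percent inhibition per compound concentration was referenced to vehicle-treated enzyme and no-enzyme wells. Enzyme at a 4 μg/mL working stock plus compound was mixed for 20 min at room temperature before the FS1 substrate (300 μg/mL working stock) was added for a 1 h room-temperature reaction.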

T1 sequence (P56817 46-501): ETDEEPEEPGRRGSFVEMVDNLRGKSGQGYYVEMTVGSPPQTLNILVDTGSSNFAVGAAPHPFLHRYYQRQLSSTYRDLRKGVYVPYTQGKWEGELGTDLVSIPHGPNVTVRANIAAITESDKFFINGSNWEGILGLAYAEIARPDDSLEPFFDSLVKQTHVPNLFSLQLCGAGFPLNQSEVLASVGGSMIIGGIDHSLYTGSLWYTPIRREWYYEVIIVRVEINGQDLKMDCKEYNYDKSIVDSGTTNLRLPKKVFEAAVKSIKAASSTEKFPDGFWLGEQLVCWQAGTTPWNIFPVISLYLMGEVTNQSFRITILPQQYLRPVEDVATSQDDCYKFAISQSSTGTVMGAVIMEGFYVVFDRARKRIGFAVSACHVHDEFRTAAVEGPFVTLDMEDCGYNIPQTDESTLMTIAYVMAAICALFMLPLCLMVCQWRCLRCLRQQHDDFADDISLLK

SMILES	% Inhibition (FS) (0.3 μM test compound)	% Inhibition (FS) (1 μM test compound)	% Inhibition (FS) (3 μM test compound)	% Inhibition (FS) (10 μM test compound)	% Inhibition (FS) (0.3 μM compound, FS1 substrate)	% Inhibition (FS) (1 μM compound, FS1 substrate)	% Inhibition (FS) (3 μM compound, FS1 substrate)
CN(C(=O)c1cccc(CN2Cc3cc(Oc4ccccc4-n4cccc4)ccc3N=C2N)c1)C1CCCCC1 [Compound 471]	<30%	<30%	38%				
NC1=Nc2ccc(Oc3ccccc3)cc2CN1C1CCN(C(=O)C2CCCCC2)C1 (stereo not drawn) [Compound 119]			42%	75%			
COc1ccccc1-c1ccc2c(c1)CN([C@@H](CCC(=O)N(C)Cc1cc(C)no1)C1CCCCC1)C(N)=N2 [Compound 718]					<30%	30%	
NC1=Nc2ccc(Oc3ccccc3)cc2CN1CC(NC(=O)C1CCCCC1)C1CCCCC1 (stereo not drawn) [Compound 637]	<30%	<30%	73%				
CC(C)CCC(=O)N1CCCC(N2Cc3cc(Oc4ccccc4)ccc3N=C2N)C1 (stereo not drawn) [Compound 613]	36%	31%	<30%				
CN(C(=O)c1cccc(CN2Cc3cc(Nc4ccc(C5CCCCC5)cc4)ccc3N=C2N)c1)C1CCCCC1 [Compound 437]	<30%	<30%	38%				
CCCC(CCCC(=O)NC1CCCCC1)N1Cc2cc(Oc3ccccc3)ccc2N=C1N (stereo not drawn) [Compound 91]			68%	117%			
CC(c1ccccc1)c1ccc2c(c1)CN(Cc1cccc(C(=O)N(C)C3CCCCC3)c1)C(N)=N2 (stereo not drawn) [Compound 332]	<30%	<30%	<30%				
CCCc1cccc(C)c1Oc1ccc2c(c1)CN(Cc1cccc(C(=O)N(C)C3CCCCC3)c1)C(N)=N2 [Compound 482]	<30%	<30%	43%				
NC1=Nc2ccc(Oc3ccccc3)cc2CN1CCC(=O)N(C1CCCCC1)C1CCCCC1 [Compound 180]	<30%	<30%	77%				
CCCCCCCCC(CCC(=O)NC1CCCCCC1)N1Cc2cc(Oc3ccccc3)ccc2N=C1N (stereo not drawn) [Compound 208]	<30%	<30%	67%				
NC1=Nc2ccc(-c3ccc4ccccc4c3)cc2CN1CCNC(=O)C12CC3CC(CC(C3)C1)C2 [Compound 665]					35%	<30%	<30%
CCCC(CCC)C(=O)N1CCCC(N2Cc3cc(Oc4ccccc4)ccc3N=C2N)C1 (stereo not drawn) [Compound 612]	<30%	34%	<30%				
CN(C(=O)c1cccc(CN2Cc3cc(Oc4ccccc4-c4ccccc4)ccc3N=C2N)c1)C1CCCCC1 [Compound 234]	<30%	57%	43%				
COc1ccccc1-c1ccc2c(c1)CN(Cc1cccc(C(=O)N(C)C3CCCCC3)c1)C(NC(C)=O)=N2 [Compound 607]	94%	116%	123%				
CC(C)(C)OC(=O)NCc1cccc(CN2Cc3cc(Oc4ccccc4)ccc3N=C2N)c1 [Compound 315]	<30%	<30%	33%				
CN(C)c1cccc(Oc2ccc3c(c2)CN(Cc2cccc(C(=O)N(C)C4CCCCC4)c2)C(N)=N3)c1 [Compound 479]	<30%	<30%	81%				
CCC(c1cccc(C(=O)N(C2CCCCC2)C2CCCCC2)c1)N1Cc2cc(Oc3ccccc3)ccc2N=C1N (stereo not drawn) [Compound 419]	38%	64%	109%				
COc1cccc(OC)c1Oc1ccc2c(c1)CN(Cc1cccc(C(=O)N(C)C3CCCCC3)c1)C(N)=N2 [Compound 477]	<30%	<30%	<30%				
CN(C(=O)CCC(C1CCCCC1)N1Cc2cc(Oc3ccccc3)ccc2N=C1N)C1(C(=O)O)CCCCC1 (stereo not drawn) [Compound 741]					−48%	−38%	−25%
CC(C)Oc1ccccc1Oc1ccc2c(c1)CN(Cc1cccc(C(=O)N(C)C3CCCCC3)c1)C(N)=N2 [Compound 478]	<30%	<30%	46%				
NC1=Nc2ccc(Oc3ccccc3)cc2CN1Cc1cccc(NC(=O)C2CCCCC2)c1 [Compound 286]	<30%	<30%	36%				
CC(C)COc1ccc2c(c1)CN(Cc1cccc(C(=O)N(C)C3CCCCC3)c1)C(N)=N2 [Compound 518]	<30%	<30%	<30%				
CN(C(=O)CCC(c1ccc(Cl)cc1)N1Cc2cc(Oc3ccccc3)ccc2N=C1N)C1CCCCC1 (stereo not drawn) [Compound 297]	<30%	76%	109%				
CC(C)C(CC(=O)NC1CCCCC1)N1Cc2cc(Oc3ccccc3)ccc2N=C1N (stereo not drawn) [Compound 401]	<30%	<30%	52%				
NC1=Nc2ccc(Oc3ccccc3)cc2CN1CCNCC1CCCCC1 [Compound 427]	<30%	26%	62%				
CN(C(=O)c1cccc(CN2Cc3cc(Oc4cccc(Oc5ccccc5)c4)ccc3N=C2N)c1)C1CCCCC1 [Compound 236]	<30%	37%	49%				
CN(C(=O)c1cccc(CN2Cc3cc(Oc4ccccc4C(=O)N4CCCC4)ccc3N=C2N)c1)C1CCCCC1 [Compound 483]	<30%	<30%	<30%				

Results, then the compound that gave them:

% Inhibition (FS) (0.3 μM test compound)	% Inhibition (FS) (1 μM test compound)	% Inhibition (FS) (3 μM test compound)	% Inhibition (FS) (10 μM test compound)	% Inhibition (FS) (0.3 μM compound, FS1 substrate)	% Inhibition (FS) (1 μM compound, FS1 substrate)	% Inhibition (FS) (3 μM compound, FS1 substrate)	SMILES
<30%	<30%	<30%					COc1ccccc1-c1ccc2c(c1)CN(CCNC(=O)C1(C(N)=O)CC1)C(N)=N2 [Compound 488]
				36%	<30%	41%	CC(C)(C)C(=O)NCCN1Cc2cc(-c3cnc4ccccc4c3)ccc2N=C1N [Compound 674]
				<30%	36%	81%	NC1=Nc2ccc(-c3ccccc3F)cc2CN1CCNC(=O)C1CCC(C(F)(F)F)CC1 (stereo not drawn) [Compound 688]
<30%	<30%	<30%					NC1=Nc2ccc(-c3ccncc3)cc2CN1CCNC(=O)C1CCCCC1 [Compound 576]
<30%	<30%	41%					NC1=Nc2ccc(-c3cccc(C(F)(F)F)c3)cc2CN1CCNC(=O)Cc1ccccc1 [Compound 600]
<30%	<30%	59%					Cc1cc(C(=O)NCCN2Cc3cc(-c4ccccc4)ccc3N=C2N)c(C)o1 [Compound 586]
				<30%	46%	83%	COC1CCCC(C(=O)NCCN2Cc3cc(-c4ccccc4)ccc3N=C2N)C1 (stereo not drawn) [Compound 703]
<30%	<30%	73%					CC(C)(C)NS(=O)(=O)c1ccccc1-c1ccc2c(c1)CN(CCNC(=O)C1CCCCC1)C(N)=N2 [Compound 542]
<30%	<30%	38%					CCCCCC1CCC(C(=O)NCCN2Cc3cc(Oc4ccccc4)ccc3N=C2N)CC1 (stereo not drawn) [Compound 182]
<30%	<30%	<30%					CC(=O)c1cccc(-c2ccc3c(c2)CN(CCNC(=O)c2cc(C)oc2C)C(N)=N3)c1 [Compound 588]
<30%	<30%	<30%					CCCC=Cc1ccc2c(c1)CN(CCNC(=O)Cc1ccccc1)C(N)=N2 [Compound 596]
<30%	46%	88%					CC1CCC(C(=O)NCCN2Cc3cc(Oc4ccccc4)ccc3N=C2N)CC1 (stereo not drawn) [Compound 191]
<30%	<30%	32%					CC(C)N(C(=O)CCN1Cc2cc(Oc3ccccc3)ccc2N=C1N)C(C)C [Compound 181]
				64%	86%		CC(CC(=O)NCCN1Cc2cc(-c3ccccc3Cl)ccc2N=C1N)C(F)(F)F (stereo not drawn) [Compound 683]
<30%	<30%	<30%					CC(C)(C)C(=O)NCCN1Cc2cc(-c3ccncc3)ccc2N=C1N [Compound 573]
<30%	<30%	36%					CC(=O)c1cccc(-c2ccc3c(c2)CN(CCNC(=O)Cc2ccccc2)C(N)=N3)c1 [Compound 598]
<30%	<30%	<30%					CCCC(=O)NCCN1Cc2cc(-c3ccncc3)ccc2N=C1N [Compound 570]
				66%	97%		CCCCC(CC)C(=O)NCCN1Cc2cc(-c3ccccc3C)ccc2N=C1N (stereo not drawn) [Compound 662]
				78%	99%		Cc1ccccc1-c1ccc2c(c1)CN(CCNC(=O)CC(C)C(F)(F)F)C(N)=N2 (stereo not drawn) [Compound 679]
<30%	<30%	56%					NC1=Nc2ccc(-c3cccc(C(F)(F)F)c3)cc2CN1CCNC(=O)CC1CCCC1 [Compound 584]
<30%	<30%	<30%					CCCC=Cc1ccc2c(c1)CN(CCNC(=O)c1cccc(C#N)c1)C(N)=N2 [Compound 568]
